Columns and labels:
[1] = rat, in vivo, 1000 mg/kg
PD-L1 = PD-L1 surface expression on human monocytes stimulated with TNF-α; assay type: cell-based
human monocytes = experiment: RNAseq gene expression in purified human monocytes treated with ITF3756 and/or TNF-α; assay type: cell-based
Text: PBMCs used for the experiments were obtained from Buffy Coats of healthy donors (all samples tested negative for transmissible diseases as required for blood transfusion) separated over a Ficoll-Hypaque gradient (Biochrom). Monocytes were purified by negative selection from 100×10^6 PBMC using Pan Monocytes Isolation Kit (Milteny) following manufacturer's instructions. By Pan Monocyte Isolation kit untouched monocytes are isolated from human PBMCs and the simultaneous enrichment of classical (CD14^++CD16^−), non classical (CD14^+CD16^++) and intermediate (CD14^++CD16^+) monocytes is achieved. Non-monocytes, such as T cells, NK cells, B cells, dendritic cells, and basophils are indirectly magnetically labeled using a cocktail of biotin-conjugated antibodies and anti-Biotin MicroBeads. Briefly, 400 μL of Buffer (PBS 1×, 0.5% BSA and 2 mM EDTA), 100 μL of FcR Blocking Reagent and 100 μL of Biotin-Antibody Cocktail were added to PBMC, previously washed with PBS by centrifugation 300×g for 5 minutes, mixed and incubate for 5 minutes in the refrigerator (2-8° C.). After incubation, 300 μL of Buffer and 200 μL of anti-biotin microbeads were added to the cells, mixed and incubate further for 10 minutes in the refrigerator. After incubation cells were processed by subsequent magnetic cell separation. Cell suspension was applied onto the column and the flow-through containing unlabeled cells, representing the enriched monocytes, was collected. Purified monocytes were washed with Buffer by centrifugation 300×g for 5 minutes and counted in PBS. Purified monocytes (1,0×10^6/ml) were pre-treated for 2 h with ITF3756 1 μM or DMSO (0.005%) in 12-well plates in 1 ml final volume of complete medium (RPMI (Biochrom), FCS 10% and penicillin/streptomycin 1× (Sigma)). The cells were then stimulated or not with TNF-α (100 ng/mL, Peprotech) for 4h. After incubation with ITF3756 and TNF-α, the cells were collected, washed with PBS by centrifugation 300×g for 5 minutes and stored at −80° C. Samples were thawed on the bench for 2 minutes and total RNA was extracted with Trizol reagent (Thermo Fisher Scientific), following manufacturer's instructions. Briefly, Trizol reagent (0.75 ml Trizol per 5-10×10^6 cells) was added to the samples and the samples were incubated at room temperature (RT) for 5 minutes. After incubation, chloroform (150 μL per 0.75 mL Trizol) was added to the samples and after 3 minutes of incubation at RT, samples were centrifuged for 12000×g for 14 minutes at 4° C. After centrifugation, the mixture separates into 3 phases and RNA remains in the aqueous phase. The aqueous phase was removed for each sample and placed in new tubes, and isopropanol (0,375 ml per 0.75 ml of Trizol) was added in each tube. Samples was incubated for 30 minutes in the refrigerator (2-8° C.). After incubation, samples were centrifugated for 12000×g for 10 minutes at 4° C., the supernatant was removed and 75% ethanol (0.75 ml per 0.75 ml of Trizol) was added to samples. Samples were centrifuged for 7500×g for 5 minutes at 4° C., and the supernatant discarded. RNA was air dried on the bench for 5-10 minutes. RNA Samples was then resuspended in water (10-50 μL). The scheme of the experimental procedures carried out to generate the RNA sequence data is represented in FIG. 1. To determine the quantity and the integrity/purity of RNA samples, check controls were first performed by the Agilent Technologies 2100 Bioanalyzer using RNA 6000 LabChip® kit (Agilent #5067-1511). The Bioanalyzer is a bio-analytical device based on a combination of microfluidic chips, voltage-induced size separation in gel filled channels and laser-induced fluorescence (LIF) detection on a miniaturized scale. The RNA Integrity Number (RIN) software algorithm allows the classification of total RNA, based on a numbering system from 1 to 10, (with 1 being the most degraded and 10 being the most intact). […] Purified samples were processed using TruSeq RNA-Seq v2 Library Preparation Kit. […]

[2] = ITF3756 1 μM in combination with TNF-α 100 ng/mL, RNAseq
[3] = ITF3756 1 μM in the presence of TNF-α 100 ng/mL, RNAseq
[4] = ITF3756 + TNFα vs vehicle-treated control (don)
[5] = M2 marker, human monocytes, ITF3756 1 μM, RNAseq
[6] = single treatment (ITF3756 1 μM or TNF-α 100 ng/mL), RNAseq, vs control
[7] = single treatment (ITF3756 1 μM), RNAseq, vs control
[8] = single treatment vs vehicle-treated control (don), monocytes 4 h, padj<0.05
[9] = versus control, not shared with TNF-α or ITF3756+TNF-α

With `O=C(NO)c1ccc(Cn2nnnc2-c2cccs2)cc1` [ITF3756, N-hydroxy-4-((5-(thiophen-2-yl)-1 H-tetrazol-1-yl)methyl)benzamide] as the molecule, how does the tolerability [1] read?
The tolerability was “well tolerated”.

And the “surface expression of PD-L1 (upregulation by TNF-α)” value (PD-L1)?
The value was “inhibited”.

And the CD40 gene expression (human monocytes; ITF3756 1 μM combined with TNF-α 100 ng/mL, RNAseq)?
Its CD40 gene expression is “slightly increases the upregulation of CD40 expression induced by TNF-α alone”.

What about the ADA gene expression (human monocytes; [2]) of the same molecule?
The ADA gene expression was “upregulation”.

What about the FATP1/SLC27A1 gene expression (human monocytes; [2]) of the same molecule?
Its FATP1/SLC27A1 gene expression is “the basal expression of the gene is maintained”.

And the IRF6 gene expression (human monocytes; [2])?
The IRF6 gene expression was “no effect”.

And the NBEAL2 gene expression (human monocytes; [2])?
Its NBEAL2 gene expression is “increases the expression”.

What about the ANXA6 gene expression (human monocytes; [3]) of the same molecule?
The ANXA6 gene expression was “the upregulation is even stronger and probably synergistic”.

And the CD84 gene expression (human monocytes; [3])?
The CD84 gene expression was “downregulation is further enhanced”.

And the CD163 gene expression (human monocytes; [3])?
The CD163 gene expression was “down-modulated”.

And the CD204/MSR1 gene expression (human monocytes; [3])?
Its CD204/MSR1 gene expression is “strongly down-modulated”.

And the CD206/MRC1 gene expression (human monocytes; [3])?
The CD206/MRC1 gene expression was “strongly down-modulated”.

And the CXCL2 gene expression (human monocytes; [3])?
Its CXCL2 gene expression is “reverts the upregulation induce by TNF establishing a normal level of expression”.

And the LTBP4 gene expression (human monocytes; [3])?
The LTBP4 gene expression was “counters this downregulation”.

What about the RANK/TNFRSF11a gene expression (human monocytes; [3]) of the same molecule?
The RANK/TNFRSF11a gene expression was “downregulation of RANK/TNFRSF11a is increased compared to single treatments”.

What about the STAB1 gene expression (human monocytes; [3]) of the same molecule?
Its STAB1 gene expression is “synergistically reduced”.

What about the “Genes Down regulated (number of genes modulated)” value (human monocytes; [4]) of the same molecule?
Its value is 2329.

What about the “Genes Up regulated (number of genes modulated)” value (human monocytes; [4]) of the same molecule?
The value was 2282.

And the MMP9 gene expression (human monocytes; ITF3756+TNF-α, compared to untreated control, RNAseq)?
The MMP9 gene expression was “No modulation”.

What about the “Fold change ADA” value (human monocytes; [5]) of the same molecule?
The value was −1.9.

And the “Fold change CD163” value (human monocytes; [5])?
Its value is −4.

What about the “Fold change CD204/MSR1” value (human monocytes; [5]) of the same molecule?
The value was −2.6.

And the “Fold change CD206/MRC1” value (human monocytes; [5])?
Its value is −13.3.

And the “Fold change MMP9” value (human monocytes; [5])?
Its value is −3.6.

And the “Fold change STAB1 (Stabilin-1/Clever-1)” value (human monocytes; [5])?
The value was −14.

And the “downregulation of PD-L1 (CD274) gene expression” value (human monocytes; cells treated with TNF-α+ITF3756, RNAseq)?
Its value is 59%.

And the ADA gene expression (human monocytes; [6])?
The ADA gene expression was “downmodulated”.

What about the IRF6 gene expression (human monocytes; [6]) of the same molecule?
Its IRF6 gene expression is “upregulates the expression”.

And the LTBP4 gene expression (human monocytes; [6])?
Its LTBP4 gene expression is “upregulates the expression”.

What about the MMP9 gene expression (human monocytes; single treatment (ITF3756 1 μM or TNF-α 100 ng/mL), RNAseq, vs untreated control) of the same molecule?
The MMP9 gene expression was “down-modulated”.

And the ANXA6 gene expression (human monocytes; [7])?
Its ANXA6 gene expression is “robust upregulation”.

What about the CD40 gene expression (human monocytes; [7]) of the same molecule?
Its CD40 gene expression is “upregulates”.

What about the CD84 gene expression (human monocytes; [7]) of the same molecule?
Its CD84 gene expression is “strongly downregulates”.

And the CD163 gene expression (human monocytes; [7])?
Its CD163 gene expression is “down-modulated”.

And the CD204/MSR1 gene expression (human monocytes; [7])?
Its CD204/MSR1 gene expression is “down-modulated”.

What about the CD206/MRC1 gene expression (human monocytes; [7]) of the same molecule?
Its CD206/MRC1 gene expression is “strongly down-modulated”.

What about the CXCL2 gene expression (human monocytes; [7]) of the same molecule?
Its CXCL2 gene expression is “decreases the expression”.

And the CXCL3 gene expression (human monocytes; [7])?
Its CXCL3 gene expression is “reduced the expression”.

What about the FATP1/SLC27A1 gene expression (human monocytes; [7]) of the same molecule?
The FATP1/SLC27A1 gene expression was “up-regulates the expression”.

What about the NBEAL2 gene expression (human monocytes; [7]) of the same molecule?
The NBEAL2 gene expression was “increases the expression”.

And the RANK/TNFRSF11a gene expression (human monocytes; [7])?
Its RANK/TNFRSF11a gene expression is “strong downregulation”.

What about the STAB1 gene expression (human monocytes; [7]) of the same molecule?
The STAB1 gene expression was “strongly downregulated”.

And the CD276 gene expression (human monocytes; single treatment (ITF3756), vs control)?
Its CD276 gene expression is “down-regulated the expression”.

What about the “Genes Down regulated (number of genes modulated)” value (human monocytes; [8]) of the same molecule?
The value was 1503.

What about the “Genes Up regulated (number of genes modulated)” value (human monocytes; [8]) of the same molecule?
The value was 1499.

What about the “genes specifically downregulated (Venn diagram)” value (human monocytes; [9]) of the same molecule?
The value was 386.

And the “genes specifically upregulated (Venn diagram)” value (human monocytes; [9])?
Its value is 537.

— patent US20250011878A1, “METHOD TO DETECT RNA BIOMARKERS” (ITALFARMACO SPA, priority 2021, published 2025)
